Data from US20200216863A1, “Use of renewable deep eutectic solvents in a one-pot process for a biomass” (National Technology & Engineering Solutions of Sandia, LLC, priority 2019, published 2020).

Key:
[1] = tested on: unmodified control strain; type: cell-based, yeast
Description: (§1) The effect of DES-Ch12 supplementation on growth and carbon utilization of JBEI-9009 was analyzed in a plate reader-based assay. […] To test if the presence of DES-Ch12 in the media impairs the ability of the strain JBEI-9009 to efficiently utilize xylose, the strain was cultivated in CSM media with 2 wt % xylose containing 10 wt % Ch12 and final samples were taken for HPLC measurements.

yeast strain JBEI-9009 = type: cell-based
Description: Next, in order to test the feasibility of C5/C6 sugar cofermentation and thus to further improve the economic feasibility of the process,(22) the yeast strain JBEI-9009, developed in our lab for optimized xylose consumption,(30) was used for further experiments.
as §1

yeast = settings: cited from earlier work

## [Ch][Cl]-2glycerol [Ch12]
[1]
  growth tolerance: without showing significant growth limitations
Yeast strain JBEI-9009
  growth tolerance: without showing significant growth limitations
  lag phase: longer lag phase

## O=C(O)/C=C/c1ccc(O)cc1 [p-coumaric acid]
yeast
  concentration required for inhibition of yeast growth: ~1000 µM

## O=C(O)c1ccccc1 [Benzoic acid]
yeast
  concentration required for inhibition of yeast growth: ~1000 µM

## O=Cc1ccc(CO)o1 [HMF, hydroxymethylfurfural]
yeast
  concentration with significant inhibition of yeast growth: 3000 µg/mL
  ethanol yield in presence of inhibitor: 89%
